This passage reports TD50 and carcinogen call results from PubChem BioAssay AID1745844 (Carcinogenic Potency Database (CPDB), 2022).

The data set deals with rodent lifetime carcinogenesis bioassay, tumor incidence TD50. Briefly: carcinogenic potency in animals, long-term in vivo studies, CPDB compilation (AID 1745844).

Activity calls are given as the source filed them. How the calls were made is not given here.

A word on the TD50: it is the 50% point of the dose-response relation for the toxic effect studied. In the case of `C/C=C(/C)C(=O)O[C@H]1CCN2CC=C(COC(=O)[C@@](O)([C@H](C)OC)C(C)(C)O)[C@H]12`, the TD50 (rat, strain Fischer 344, females, in feed, site: any site (literature study), lesion: several types, types named in the paper, dosed 92 weeks, study length 104 weeks) is 0.102 mg/kg/day; the TD50 (rat, strain Fischer 344, females, in feed, site: liver + multiple organs, lesion: adenoma, NOS + angiosarcoma + hepatocellular carcinoma + granulocytic leukemia + leukemia + lymphocytic leukemia + lymphoma + undiffer, dosed 92 weeks, study length 104 weeks) was found to be 0.141 mg/kg/day; the TD50 (rat, strain Fischer 344, females, in feed, site: liver, lesion: adenoma, NOS + hepatocellular carcinoma, dosed 92 weeks, study length 104 weeks) is 0.453 mg/kg/day; the TD50 (rat, strain Fischer 344, females, in feed, site: liver, lesion: angiosarcoma, dosed 92 weeks, study length 104 weeks) is 0.355 mg/kg/day; the TD50 (rat, strain Fischer 344, females, in feed, site: liver, lesion: hepatocellular adenoma + hepatocellular carcinoma + neoplastic nodule, dosed 92 weeks, study length 104 weeks) was 22.7 mg/kg/day; the TD50 (rat, strain Fischer 344, females, in feed, site: multiple organs, lesion: granulocytic leukemia + lymphocytic leukemia + undifferentiated leukemia, dosed 92 weeks, study length 104 weeks) is 0.387 mg/kg/day. Further, the TD50 by setting is: (rat, strain Fischer 344, females, in feed, site: multiple organs, lesion: leukemia + lymphoma, dosed 92 weeks, study length 104 weeks) 0.325 mg/kg/day; (rat, strain Fischer 344, males, i.p., site: any site (literature study), lesion: several types, types named in the paper, dosed 56 weeks, study length 76 weeks) 0.152 mg/kg/day; (rat, strain Fischer 344, males, i.p., site: liver, lesion: hepatocellular carcinoma, dosed 56 weeks, study length 76 weeks) 0.397 mg/kg/day; (rat, strain Fischer 344, males, i.p., site: liver, lesion: several types, types named in the paper, dosed 56 weeks, study length 76 weeks) 0.341 mg/kg/day; (rat, strain Fischer 344, males, i.p., site: lung, lesion: adenoma, dosed 56 weeks, study length 76 weeks) 1.33 mg/kg/day; (rat, strain Fischer 344, males, i.p., site: skin, lesion: squamous-cell carcinoma, dosed 56 weeks, study length 76 weeks) 0.794 mg/kg/day. Further, the TD50 reads like this: (rat, strain Fischer 344, males, i.p., site: small intestine, lesion: adenocarcinoma, dosed 56 weeks, study length 76 weeks) 2.73 mg/kg/day; (rat, strain Fischer 344, males, in feed, site: all sites, lesion: leukemia + lymphoma, dosed 98 weeks, study length 104 weeks) 0.514 mg/kg/day; (rat, strain Fischer 344, males, in feed, site: any site (literature study), lesion: several types, types named in the paper, dosed 55 weeks, study length 59 weeks) 0.217 mg/kg/day; (rat, strain Fischer 344, males, in feed, site: any site (literature study), lesion: several types, types named in the paper, dosed 98 weeks, study length 104 weeks) 0.152 mg/kg/day; (rat, strain Fischer 344, males, in feed, site: liver, lesion: adenoma, NOS + angiosarcoma + hepatocellular carcinoma, dosed 98 weeks, study length 104 weeks) 0.25 mg/kg/day; (rat, strain Fischer 344, males, in feed, site: liver, lesion: adenoma, NOS + hepatocellular carcinoma, dosed 98 weeks, study length 104 weeks) 0.908 mg/kg/day. Further, the TD50 by setting is: (rat, strain Fischer 344, males, in feed, site: liver, lesion: angiosarcoma, dosed 55 weeks, study length 59 weeks) 0.688 mg/kg/day; (rat, strain Fischer 344, males, in feed, site: liver, lesion: angiosarcoma, dosed 98 weeks, study length 104 weeks) 0.355 mg/kg/day; (rat, strain Fischer 344, males, in feed, site: liver, lesion: carcinoma, dosed 55 weeks, study length 59 weeks) 0.954 mg/kg/day; (rat, strain Fischer 344, males, in feed, site: liver, lesion: hepatocellular adenoma + hepatocellular carcinoma + neoplastic nodule, dosed 98 weeks, study length 104 weeks) 7.43 mg/kg/day.

Regarding `CC(O)CN(CC(C)O)CC(C)O` (stereo unspecified), the carcinogen call (rat, strain Wistar, males, in feed, site: liver, lesion: one or several types, types not named, dosed 102 weeks, study length 102 weeks) was “negative (inactive)”.

Turning to `O=P(OCC(Br)CBr)(OCC(Br)CBr)OCC(Br)CBr` (stereo unspecified), the TD50 was 148 mg/kg/day (mouse, strain B6C3F1, females, in feed, site: any site (literature study), lesion: several types, types named in the paper, dosed 103 weeks, study length 104 weeks); 80.1 mg/kg/day (mouse, strain B6C3F1, females, in feed, site: liver + lung + stomach, lesion: hepatocellular adenoma + hepatocellular carcinoma + alveolar/bronchiolar adenoma + alveolar/bronchiolar carcinoma + squamous-cel, dosed 103 weeks, study length 104 weeks); 95 mg/kg/day (mouse, strain B6C3F1, females, in feed, site: liver, lesion: hepatocellular adenoma + hepatocellular carcinoma + neoplastic nodule, dosed 103 weeks, study length 104 weeks); 95 mg/kg/day (mouse, strain B6C3F1, females, in feed, site: liver, lesion: hepatocellular adenoma + hepatocellular carcinoma, dosed 103 weeks, study length 104 weeks); 221 mg/kg/day (mouse, strain B6C3F1, females, in feed, site: liver, lesion: hepatocellular carcinoma, dosed 103 weeks, study length 104 weeks); 225 mg/kg/day (mouse, strain B6C3F1, females, in feed, site: lung, lesion: alveolar/bronchiolar adenoma + alveolar/bronchiolar carcinoma, dosed 103 weeks, study length 104 weeks). The TD50 is, setting by setting: (mouse, strain B6C3F1, females, in feed, site: stomach, lesion: squamous-cell carcinoma + squamous-cell papilloma, dosed 103 weeks, study length 104 weeks) 127 mg/kg/day; (mouse, strain B6C3F1, females, in feed, site: stomach, lesion: squamous-cell carcinoma, dosed 103 weeks, study length 104 weeks) 611 mg/kg/day; (mouse, strain B6C3F1, females, in feed, site: uterus, lesion: endometrial stromal polyp, dosed 103 weeks, study length 104 weeks) 264 mg/kg/day; (mouse, strain B6C3F1, males, in feed, site: any site (literature study), lesion: several types, types named in the paper, dosed 103 weeks, study length 104 weeks) 2220 mg/kg/day; (mouse, strain B6C3F1, males, in feed, site: kidney + lung + stomach, lesion: tubular-cell adenoma + tubular-cell adenocarcinoma + alveolar/bronchiolar adenoma + alveolar/bronchiolar carcinoma + squamous-ce, dosed 103 weeks, study length 104 weeks) 103 mg/kg/day; (mouse, strain B6C3F1, males, in feed, site: kidney, lesion: tubular-cell adenocarcinoma, dosed 103 weeks, study length 104 weeks) 822 mg/kg/day. Moreover, the TD50 is, setting by setting: (mouse, strain B6C3F1, males, in feed, site: kidney, lesion: tubular-cell adenoma + tubular-cell adenocarcinoma, dosed 103 weeks, study length 104 weeks) 256 mg/kg/day; (mouse, strain B6C3F1, males, in feed, site: liver, lesion: hepatocellular adenoma + hepatocellular carcinoma + neoplastic nodule, dosed 103 weeks, study length 104 weeks) 172 mg/kg/day; (mouse, strain B6C3F1, males, in feed, site: lung, lesion: alveolar/bronchiolar adenoma + alveolar/bronchiolar carcinoma, dosed 103 weeks, study length 104 weeks) 211 mg/kg/day; (mouse, strain B6C3F1, males, in feed, site: lung, lesion: alveolar/bronchiolar carcinoma, dosed 103 weeks, study length 104 weeks) 449 mg/kg/day; (mouse, strain B6C3F1, males, in feed, site: stomach, lesion: squamous-cell carcinoma + squamous-cell papilloma, dosed 103 weeks, study length 104 weeks) 197 mg/kg/day; (rat, strain Fischer 344, females, in feed, site: any site (literature study), lesion: several types, types named in the paper, dosed 103 weeks, study length 104 weeks) 23 mg/kg/day. Moreover, the TD50 by setting is: (rat, strain Fischer 344, females, in feed, site: kidney, lesion: tubular-cell adenoma, dosed 103 weeks, study length 104 weeks) 13.8 mg/kg/day; (rat, strain Fischer 344, females, in feed, site: liver, lesion: hepatocellular adenoma + hepatocellular carcinoma + neoplastic nodule, dosed 103 weeks, study length 104 weeks) 2820 mg/kg/day; (rat, strain Fischer 344, females, in feed, site: ovary, lesion: Sertoli-cell tumor, dosed 103 weeks, study length 104 weeks) 66.4 mg/kg/day; (rat, strain Fischer 344, males, by gavage, site: colon, lesion: polypoid adenoma, dosed 52 weeks, study length 52 weeks) 13.4 mg/kg/day; (rat, strain Fischer 344, males, by gavage, site: kidney, lesion: adenocarcinoma, dosed 52 weeks, study length 52 weeks) 54.8 mg/kg/day; (rat, strain Fischer 344, males, in feed, site: any site (literature study), lesion: several types, types named in the paper, dosed 103 weeks, study length 104 weeks) 8.31 mg/kg/day. In addition, the TD50 reads like this: (rat, strain Fischer 344, males, in feed, site: kidney, lesion: tubular-cell adenocarcinoma, dosed 103 weeks, study length 104 weeks) 63.3 mg/kg/day; (rat, strain Fischer 344, males, in feed, site: kidney, lesion: tubular-cell adenoma + tubular-cell adenocarcinoma, dosed 103 weeks, study length 104 weeks) 1.57 mg/kg/day; (rat, strain Fischer 344, males, in feed, site: kidney, lesion: tubular-cell adenoma, dosed 103 weeks, study length 104 weeks) 1.57 mg/kg/day; (rat, strain Fischer 344, males, in feed, site: liver, lesion: hepatocellular adenoma + hepatocellular carcinoma + neoplastic nodule, dosed 103 weeks, study length 104 weeks) 34.3 mg/kg/day; (rat, strain Fischer 344, males, in feed, site: liver, lesion: hepatocellular carcinoma + neoplastic nodule, dosed 103 weeks, study length 104 weeks) 34.3 mg/kg/day; (rat, strain Fischer 344, males, in feed, site: preputial gland, lesion: adenocarcinoma, NOS + adenoma, NOS + carcinoma, NOS, dosed 103 weeks, study length 104 weeks) 20.3 mg/kg/day.

Turning to `Cc1ccc(C)c(N)c1`, the TD50 is 475 mg/kg/day (mouse, strain CD-1 HaM/ICR, females, in feed, site: any site (literature study), lesion: several types, types named in the paper, dosed 68 weeks, study length 94 weeks); 552 mg/kg/day (mouse, strain CD-1 HaM/ICR, females, in feed, site: liver, lesion: hepatoma, dosed 68 weeks, study length 94 weeks); 552 mg/kg/day (mouse, strain CD-1 HaM/ICR, females, in feed, site: liver, lesion: several types, types named in the paper, dosed 68 weeks, study length 94 weeks); 1290 mg/kg/day (inactive) (mouse, strain CD-1 HaM/ICR, females, in feed, site: lung, lesion: several types, types named in the paper, dosed 68 weeks, study length 94 weeks); 723 mg/kg/day (mouse, strain CD-1 HaM/ICR, males, in feed, site: all sites, lesion: all vascular tumors, dosed 68 weeks, study length 94 weeks); 321 mg/kg/day (mouse, strain CD-1 HaM/ICR, males, in feed, site: any site (literature study), lesion: several types, types named in the paper, dosed 68 weeks, study length 94 weeks). The TD50 is, setting by setting: (mouse, strain CD-1 HaM/ICR, males, in feed, site: liver, lesion: several types, types named in the paper, dosed 68 weeks, study length 94 weeks) 805 mg/kg/day; (mouse, strain CD-1 HaM/ICR, males, in feed, site: lung, lesion: several types, types named in the paper, dosed 68 weeks, study length 94 weeks) 765 mg/kg/day (inactive); (rat, strain Charles River CD (Sprague-Dawley), males, in feed, site: any site (literature study), lesion: several types, types named in the paper, dosed 77 weeks, study length 103 weeks) 67.2 mg/kg/day; (rat, strain Charles River CD (Sprague-Dawley), males, in feed, site: liver, lesion: several types, types named in the paper, dosed 77 weeks, study length 103 weeks) 3260 mg/kg/day (inactive); (rat, strain Charles River CD (Sprague-Dawley), males, in feed, site: subcutaneous tissue, lesion: several types, types named in the paper, dosed 77 weeks, study length 103 weeks) 152 mg/kg/day.

On to `CC(Cc1ccccc1)NN` (stereo unspecified), for which the carcinogen call was “negative (inactive)” (mouse, strain Swiss albino, females, in drinking water, site: liver, lesion: hepatoma, dosed 119 weeks, study length 127 weeks); “negative (inactive)” (mouse, strain Swiss albino, females, in drinking water, site: lung, lesion: one or several types, types not named, dosed 119 weeks, study length 127 weeks); “negative (inactive)” (mouse, strain Swiss albino, males, in drinking water, site: liver, lesion: hepatoma, dosed 100 weeks, study length 112 weeks); “negative (inactive)” (mouse, strain Swiss albino, males, in drinking water, site: lung, lesion: one or several types, types not named, dosed 100 weeks, study length 112 weeks).

For `CN(C)CCN(Cc1ccco1)c1ccccn1`, the carcinogen call is “negative (inactive)” (rat, strain Fischer 344, females, in drinking water, site: liver, lesion: several types, types named in the paper, dosed 94 weeks, study length 130 weeks) and “negative (inactive)” (rat, strain Fischer 344, males, in drinking water, site: liver, lesion: several types, types named in the paper, dosed 94 weeks, study length 115 weeks). In addition, the TD50 (rat, strain Fischer 344, females, in drinking water, site: thyroid follicle, lesion: several types, types named in the paper, dosed 94 weeks, study length 130 weeks) was 559 mg/kg/day (inactive).
